Test results reported in BindingDB's records for doi:10.1016/j.chembiol.2007.12.010 (Brandeis University, 2008).

Assays:
Assay in all cases: Enzyme Inhibition Assay
Conditions in all cases: pH 8; 25 °C
[1] = target: T1, Inosine-5-monophosphate dehydrogenase (Cryptosporidium parvum, UniProt Q5CPK7)
T1 sequence (Q5CPK7 whole entry): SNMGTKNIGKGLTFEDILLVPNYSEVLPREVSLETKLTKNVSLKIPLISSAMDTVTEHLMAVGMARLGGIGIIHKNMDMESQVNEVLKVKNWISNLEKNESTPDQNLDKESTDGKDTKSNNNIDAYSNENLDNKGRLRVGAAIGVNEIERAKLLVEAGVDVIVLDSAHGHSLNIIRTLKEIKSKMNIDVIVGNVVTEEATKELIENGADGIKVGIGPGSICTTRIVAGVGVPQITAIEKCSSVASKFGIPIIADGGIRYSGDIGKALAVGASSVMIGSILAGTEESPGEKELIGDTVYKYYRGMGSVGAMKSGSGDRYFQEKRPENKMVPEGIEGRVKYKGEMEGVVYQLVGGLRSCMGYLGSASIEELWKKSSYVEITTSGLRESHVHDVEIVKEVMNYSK
Text: (§1) Enzyme inhibition assay using recombinant human IMPDH1 and IMPDH2 and C.parvum were expressed in guaB strains of escherichia coli.

[2] = target: Inosine-5'-monophosphate dehydrogenase 1 (Homo sapiens, UniProt P20839)
Inosine-5'-monophosphate dehydrogenase 1, sequence (P20839 whole entry): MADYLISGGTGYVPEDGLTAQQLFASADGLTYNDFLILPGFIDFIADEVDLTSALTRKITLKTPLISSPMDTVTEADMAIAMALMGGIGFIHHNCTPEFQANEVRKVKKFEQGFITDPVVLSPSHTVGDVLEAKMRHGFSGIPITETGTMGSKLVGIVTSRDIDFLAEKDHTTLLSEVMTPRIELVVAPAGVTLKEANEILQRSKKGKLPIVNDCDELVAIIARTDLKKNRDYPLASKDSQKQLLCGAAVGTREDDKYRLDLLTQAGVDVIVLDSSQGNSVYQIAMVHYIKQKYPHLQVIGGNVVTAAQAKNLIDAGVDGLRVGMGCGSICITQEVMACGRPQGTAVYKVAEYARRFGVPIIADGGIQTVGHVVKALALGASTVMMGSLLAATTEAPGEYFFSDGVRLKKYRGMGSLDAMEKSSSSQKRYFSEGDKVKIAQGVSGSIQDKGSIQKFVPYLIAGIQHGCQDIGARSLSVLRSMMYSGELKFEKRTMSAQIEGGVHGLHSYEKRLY
Text: as §1

[3] = target: Inosine-5'-monophosphate dehydrogenase 2 (Homo sapiens, UniProt P12268)
Text: as §1

Row | IC50 [1] [µM] | IC50 [2] [µM] | IC50 [3] [µM] | SMILES
1 | 3.3 | > 50 | > 50 | CC(Oc1ccccc1)C(=O)Nc1ccc(Cl)cc1 (configuration not stated)
2 | 5.9 | > 50 | > 50 | O=c1[nH]c2ccc(Oc3ccc4[nH]c(=O)c(=O)[nH]c4c3)cc2[nH]c1=O [Tetrahydroquinoxalin analog, J]
3 | 1.6 | > 25 | > 25 | COC(=O)c1c(C)c(=O)[nH]c2ccccc12 [methyl 3-methyl-2-oxo-1,2-dihydroquinoline-4-carboxylate, Compound E]

Row | SMILES | IC50 [1] [µM] | IC50 [2] [µM] | IC50 [3] [µM]
4 | O=C(N/C=N\c1cccnc1)C1COc2ccccc2O1 (configuration not stated) [N-[(Z)-N-(pyridin-3-yl)carboximidoyl]-2,3-dihydro-1,4-benzodioxine-2-carboxamide, K] | 19 | > 500 | > 500
